Reference: patent US20050107423A1, “Quinolone antibacterial agents” (priority 2003, published 2005)
In brackets after ≈: the same amount, converted by molar mass.

Experiments:
Assay in all cases: Antibacterial assay, microtitration MIC (Test A)
Type in all cases: cell-based
[1] = test system: S pyogenes C203; details: Gram Positive Bacteria; strain C203; read-out: Minimum Inhibitory Concentrations S pyogenes C203
Protocol: (§1) The compounds of the present invention were tested against an assortment of Gram-negative and Gram-positive organisms using standard microtitration techniques (Cohen et. al., Antimicrob., 1985;28:766; Heifetz, et. al., Antimicrob., 1974;6:124). The results of the evaluation are shown in Tables 1A and B, wherein “-” means no data.

[2] = test system: S. pneumo SV-1; details: Gram Positive Bacteria; strain SV-1; read-out: Minimum Inhibitory Concentrations S. pneumo SV-1
Protocol: as §1

[3] = test system: E. faecalis MGH-2; details: Enterococcus faecalis, MGH2, Gram Positive Bacteria; strain MGH-2; read-out: Minimum Inhibitory Concentrations E. faecalis MGH-2
Protocol: as §1

[4] = test system: M. catarrhalis BC-3531; details: Moraxella catarrhalis, BC3531, Gram Negative Bacteria; strain BC-3531; read-out: Minimum Inhibitory Concentrations M. catarrhalis BC-3531
Protocol: as §1

[5] = test system: E. coli EC-2549; details: Escherichia coli, EC2549, Gram Negative Bacteria; strain EC-2549; read-out: Minimum Inhibitory Concentrations E. coli EC-2549
Protocol: as §1

[6] = test system: H. influenzae HI-3542; details: Haemophilus influenzae, HI3542, Gram Negative Bacteria; strain HI-3542; read-out: Minimum Inhibitory Concentrations H. influenzae HI-3542
Protocol: as §1

CC(=O)O[C@@H]1CC[C@H]2CN(c3c(F)cc4c(=O)c(C(=O)O)cn(-c5nc(N)c(F)cc5F)c4c3Cl)C[C@H]21 [drawing 456]
MIC [1]: 0.5 µg/mL (≈ 0.931 µM)
MIC [2]: 0.125 µg/mL (≈ 0.233 µM)
MIC [3]: 0.5 µg/mL (≈ 0.931 µM)

Nc1nc(-n2cc(C(=O)O)c(=O)c3cc(F)c(N4CCC(C(O)CO)C4)cc32)c(F)cc1F (stereo not drawn) [drawing 325]
MIC [4]: 0.015 µg/mL (≈ 0.0323 µM)
MIC [5]: 0.06 µg/mL (≈ 0.129 µM)
MIC [6]: 0.004 µg/mL (≈ 0.00861 µM)

O=C(O)c1cn(C2CC2)c2nc(N3CCC(C(O)C(F)(F)F)C3)c(F)cc2c1=O (stereo not drawn) [drawing 367]
MIC [1]: 1 µg/mL (≈ 2.41 µM)
MIC [2]: 0.5 µg/mL (≈ 1.2 µM)
MIC [3]: 0.25 µg/mL (≈ 0.602 µM)

O=C(O)c1cn(C2CC2)c2c(Cl)c(N3CCC(C(O)C(F)(F)F)C3)c(F)cc2c1=O (stereo not drawn)
MIC [4]: 0.004 µg/mL (≈ 0.00891 µM)
MIC [5]: 0.06 µg/mL (≈ 0.134 µM)
MIC [6]: 0.004 µg/mL (≈ 0.00891 µM)

COCCOCC(O)C1CN(c2c(F)cc3c(=O)c(C(=O)O)cn(C4CC4)c3c2C)CC1(C)C (stereo not drawn) [drawing 424]
MIC [4]: 0.25 µg/mL (≈ 0.525 µM)
MIC [5]: 2 µg/mL (≈ 4.2 µM)
MIC [6]: 0.5 µg/mL (≈ 1.05 µM)

Nc1nc(-n2cc(C(=O)O)c(=O)c3cc(F)c(N4CCC(C(O)CO)C4)c(Cl)c32)c(F)cc1F (stereo not drawn) [drawing 359]
MIC [1]: 0.5 µg/mL (≈ 1 µM)
MIC [2]: 0.5 µg/mL (≈ 1 µM)
MIC [3]: 0.5 µg/mL (≈ 1 µM)

Cc1c(N2CC(C(O)CO)C3(CC3)C2)c(F)cc2c(=O)c(C(=O)O)cn(C3CC3)c12 (stereo not drawn) [drawing 422]
MIC [4]: 0.03 µg/mL (≈ 0.072 µM)
MIC [5]: 0.125 µg/mL (≈ 0.3 µM)
MIC [6]: 0.015 µg/mL (≈ 0.036 µM)

O=C(O)c1cn(C2CC2)c2c(Cl)c(N3CCC(C(O)C(F)F)C3)c(F)cc2c1=O (stereo not drawn) [drawing 350]
MIC [1]: 0.25 µg/mL (≈ 0.58 µM)
MIC [2]: 0.125 µg/mL (≈ 0.29 µM)
MIC [3]: 0.125 µg/mL (≈ 0.29 µM)

COc1c(N2CCC(C3(O)CC3)C2)c(F)cc2c(=O)c(C(=O)O)cn(C3CC3)c12 (stereo not drawn) [drawing 327]
MIC [4]: 0.03 µg/mL (≈ 0.0745 µM)
MIC [5]: 0.25 µg/mL (≈ 0.621 µM)
MIC [6]: 0.03 µg/mL (≈ 0.0745 µM)

O=C(O)c1cn(C2CC2)c2c(Cl)c(N3CCC(C(O)CO)C3)c(F)cc2c1=O (stereo not drawn) [drawing 357]
MIC [1]: 0.03 µg/mL (≈ 0.073 µM)
MIC [2]: 0.06 µg/mL (≈ 0.146 µM)
MIC [3]: 0.06 µg/mL (≈ 0.146 µM)

Nc1nc(-n2cc(C(=O)O)c(=O)c3cc(F)c(N4C[C@@H](O)[C@@H](O)C4)nc32)c(F)cc1F [drawing 380]
MIC [4]: 0.125 µg/mL (≈ 0.286 µM)
MIC [5]: 0.25 µg/mL (≈ 0.572 µM)
MIC [6]: 0.008 µg/mL (≈ 0.0183 µM)

COc1c(N2CCC(C(C)O)C2)c(F)cc2c(=O)c(C(=O)O)cn(C3CC3)c12 (stereo not drawn) [drawing 345]
MIC [1]: 0.125 µg/mL (≈ 0.32 µM)
MIC [2]: 0.06 µg/mL (≈ 0.154 µM)
MIC [3]: 0.125 µg/mL (≈ 0.32 µM)

O=C(O)c1cn(C2CC2)c2c(Cl)c(N3CCC(C(O)CO)C3)c(F)cc2c1=O (stereo not drawn) [drawing 324]
MIC [4]: 0.016 µg/mL (≈ 0.0389 µM)
MIC [5]: 0.06 µg/mL (≈ 0.146 µM)
MIC [6]: 0.004 µg/mL (≈ 0.00974 µM)

Nc1nc(-n2cc(C(=O)O)c(=O)c3cc(F)c(N4CCC(C(O)CO)C4)c(Cl)c32)c(F)cc1F (stereo not drawn) [drawing 326]
MIC [4]: 0.125 µg/mL (≈ 0.251 µM)
MIC [5]: 0.25 µg/mL (≈ 0.501 µM)
MIC [6]: 0.008 µg/mL (≈ 0.016 µM)

COCC(O)C1CN(c2c(F)cc3c(=O)c(C(=O)O)cn(C4CC4)c3c2C)CC1(C)C (stereo not drawn) [drawing 426]
MIC [4]: 0.125 µg/mL (≈ 0.289 µM)
MIC [5]: 1 µg/mL (≈ 2.31 µM)
MIC [6]: 0.25 µg/mL (≈ 0.578 µM)

O=C(O)c1cn(C2CC2)c2c(Cl)c(N3CC(CO)C4(CC4)C3)c(F)cc2c1=O (stereo not drawn) [drawing 430]
MIC [1]: 0.06 µg/mL (≈ 0.147 µM)
MIC [2]: 0.03 µg/mL (≈ 0.0737 µM)
MIC [3]: 0.06 µg/mL (≈ 0.147 µM)

COc1c(N2CCC(C(O)c3ccc(S(C)(=O)=O)o3)C2)c(F)cc2c(=O)c(C(=O)O)cn(C3CC3)c12 (stereo not drawn) [drawing 348]
MIC [1]: 0.5 µg/mL (≈ 0.961 µM)
MIC [2]: 0.5 µg/mL (≈ 0.961 µM)
MIC [3]: 0.5 µg/mL (≈ 0.961 µM)

Nc1nc(-n2cc(C(=O)O)c(=O)c3cc(F)c(N4CCC(C(O)C(F)F)C4)c(Cl)c32)c(F)cc1F (stereo not drawn) [drawing 313]
MIC [4]: 0.015 µg/mL (≈ 0.0289 µM)
MIC [5]: 0.25 µg/mL (≈ 0.482 µM)
MIC [6]: 0.008 µg/mL (≈ 0.0154 µM)

Nc1nc(-n2cc(C(=O)O)c(=O)c3cc(F)c(N4CCC(C(O)C(F)F)C4)c(Cl)c32)c(F)cc1F (stereo not drawn) [drawing 351]
MIC [1]: 0.125 µg/mL (≈ 0.241 µM)
MIC [2]: 0.06 µg/mL (≈ 0.116 µM)
MIC [3]: 0.25 µg/mL (≈ 0.482 µM)

O=C(O)c1cn(-c2ccc(F)cc2F)c2nc(N3C[C@@H](CO)[C@@H](CO)C3)c(F)cc2c1=O [drawing 379]
MIC [4]: 0.25 µg/mL (≈ 0.556 µM)
MIC [5]: 0.5 µg/mL (≈ 1.11 µM)
MIC [6]: 0.03 µg/mL (≈ 0.0668 µM)

Cc1c(N2CCC(C(O)CO)C2)c(F)cc2c(=O)c(C(=O)O)cn(C3CC3)c12 (stereo not drawn) [drawing 356]
MIC [1]: 1 µg/mL (≈ 2.56 µM)
MIC [2]: 1 µg/mL (≈ 2.56 µM)
MIC [3]: 2 µg/mL (≈ 5.12 µM)

Cc1c(N2C[C@@H]3CC[C@@H](O)[C@@H]3C2)c(F)cc2c(=O)c(C(=O)O)cn(C3CC3)c12 [drawing 442]
MIC [4]: 0.008 µg/mL (≈ 0.0207 µM)
MIC [5]: 0.03 µg/mL (≈ 0.0776 µM)
MIC [6]: 0.008 µg/mL (≈ 0.0207 µM)

Cc1c(N2C[C@@H](CCO)[C@@H](CCO)C2)c(F)cc2c(=O)c(C(=O)O)cn(C3CC3)c12 [drawing 395]
MIC [4]: 0.06 µg/mL (≈ 0.143 µM)
MIC [5]: 0.125 µg/mL (≈ 0.299 µM)
MIC [6]: 0.015 µg/mL (≈ 0.0358 µM)

COc1c(N2CCC(C)(C(O)CC(F)(F)F)C2)c(F)cc2c(=O)c(C(=O)O)cn(C3CC3)c12 (stereo not drawn) [drawing 376]
MIC [1]: 0.25 µg/mL (≈ 0.529 µM)
MIC [2]: 0.125 µg/mL (≈ 0.265 µM)
MIC [3]: 0.125 µg/mL (≈ 0.265 µM)
